Paper PMC10931659, “Structural Characterization and Functional Analysis of Mevalonate Kinase from Tribolium castaneum (Red Flour Beetle)” (International Journal of Molecular Sciences, 2024)

T1: TcMevK (Tribolium castaneum, UniProt D2A4R0, K234A)
T1 construct: gene AUGUSTUS-3.0.2_15408; N-terminal His6 tag (pET28a-derived vector), expressed in E. coli BL21(DE3), Ni-chelating and Superdex 200 purified
T1 sequence (D2A4R0 1-396 K234A): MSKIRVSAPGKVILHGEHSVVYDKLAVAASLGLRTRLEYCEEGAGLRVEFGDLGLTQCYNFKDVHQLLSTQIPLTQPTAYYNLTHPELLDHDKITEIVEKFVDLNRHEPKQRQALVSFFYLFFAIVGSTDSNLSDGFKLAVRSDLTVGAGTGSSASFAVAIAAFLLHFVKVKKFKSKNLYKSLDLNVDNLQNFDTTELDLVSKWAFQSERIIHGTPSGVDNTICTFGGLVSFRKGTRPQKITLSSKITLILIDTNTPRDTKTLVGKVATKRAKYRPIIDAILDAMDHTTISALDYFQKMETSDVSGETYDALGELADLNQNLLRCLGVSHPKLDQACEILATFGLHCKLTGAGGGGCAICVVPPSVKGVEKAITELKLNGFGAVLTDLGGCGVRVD

T2: TcMevK (Tribolium castaneum, UniProt D2A4R0, D220A)
T2 construct: gene AUGUSTUS-3.0.2_15408; N-terminal His6 tag (pET28a-derived vector), expressed in E. coli BL21(DE3), Ni-chelating and Superdex 200 purified
T2 sequence (D2A4R0 1-396 D220A): T1 sequence (D2A4R0 1-396 K234A)

T3: TcMevK (Tribolium castaneum, UniProt D2A4R0)
T3 construct: gene AUGUSTUS-3.0.2_15408; N-terminal His6 tag (pET28a-derived vector), expressed in E. coli BL21(DE3), Ni-chelating and Superdex 200 purified
T3 sequence (D2A4R0 1-396): T1 sequence (D2A4R0 1-396 K234A)

T4: TcMevK (Tribolium castaneum, UniProt D2A4R0, V21A)
T4 construct: gene AUGUSTUS-3.0.2_15408; N-terminal His6 tag (pET28a-derived vector), expressed in E. coli BL21(DE3), Ni-chelating and Superdex 200 purified
T4 sequence (D2A4R0 1-396 V21A): T1 sequence (D2A4R0 1-396 K234A)

T5: TcMevK (Tribolium castaneum, UniProt D2A4R0, K11A)
T5 construct: gene AUGUSTUS-3.0.2_15408; N-terminal His6 tag (pET28a-derived vector), expressed in E. coli BL21(DE3), Ni-chelating and Superdex 200 purified
T5 sequence (D2A4R0 1-396 K11A): T1 sequence (D2A4R0 1-396 K234A)

T6: TcMevK (Tribolium castaneum, UniProt D2A4R0, S217A)
T6 construct: gene AUGUSTUS-3.0.2_15408; N-terminal His6 tag (pET28a-derived vector), expressed in E. coli BL21(DE3), Ni-chelating and Superdex 200 purified
T6 sequence (D2A4R0 1-396 S217A): T1 sequence (D2A4R0 1-396 K234A)

T7: TcMevK (Tribolium castaneum, UniProt D2A4R0, V264A)
T7 construct: gene AUGUSTUS-3.0.2_15408; N-terminal His6 tag (pET28a-derived vector), expressed in E. coli BL21(DE3), Ni-chelating and Superdex 200 purified
T7 sequence (D2A4R0 1-396 V264A): T1 sequence (D2A4R0 1-396 K234A)

B1: TcMevK (Tribolium castaneum) (protein)
chain: T1 sequence (D2A4R0 1-396 K234A)
notes: N-terminal His6 tag (pET28a-derived vector), expressed in E. coli BL21(DE3), Ni-chelating and Superdex 200 purified

What was measured:
[1] = biological target: T1, TcMevK; experiment: intrinsic fluorescence quenching, excitation […] nm; assay type: binding; conditions: read-out: KD Value for Mev
[2] = biological target: T2, TcMevK; experiment: intrinsic fluorescence quenching, excitation […] nm; assay type: binding; conditions: read-out: KD Value for Mev
[3] = biological target: T3, TcMevK; experiment: intrinsic fluorescence quenching, excitation […] nm; assay type: binding; conditions: read-out: KD Value for Mev
[4] = biological target: T4, TcMevK; experiment: intrinsic fluorescence quenching, excitation […] nm; assay type: binding; conditions: read-out: KD Value for Mev
[5] = biological target: T5, TcMevK; experiment: intrinsic fluorescence quenching, excitation […] nm; assay type: binding; conditions: read-out: KD Value for Mev
[6] = biological target: T6, TcMevK; experiment: intrinsic fluorescence quenching, excitation […] nm; assay type: binding; conditions: read-out: KD Value for Mev
[7] = biological target: T7, TcMevK; experiment: intrinsic fluorescence quenching, excitation […] nm; assay type: binding; conditions: read-out: KD Value for Mev
[8] = substrate: C[C@@](O)(CCO)CC(=O)O; experiment: purified protein; assay type: biochemical, Tribolium castaneum; conditions: 5 mM ATP, 16 mM MgCl2, 75 mM KCl; Mev 0–500 μM; pH and temperature not stated for this assay

| Molecule | Kd [1] | Kd [2] | Kd [3] | Kd [4] | Kd [5] | Kd [6] | Kd [7] | Km [8] |
| --- | --- | --- | --- | --- | --- | --- | --- | --- |
| C[C@@](O)(CCO)CC(=O)O [mevalonate] | 89.5 ± 2.45 µM | 47.5 ± 2.17 µM | 30 ± 0.93 µM | 51.7 ± 2.16 µM | 75.8 ± 0.84 µM | 70.2 ± 1.06 µM | 57.1 ± 1.83 µM | – |
| B1 | – | – | – | – | – | – | – | 32.71 ± 1.09 µM |
